# Where two headings read alike, the source gives them in different places.
# What was measured:
# [1] = Pharmacokinetics of ketamine and its metabolite hydroxynorketamine in mouse serum, hippocampus and frontal cortex (noncompartmental analysis, LC-MS/MS); type: in vivo, C57BL/6J mice; conditions: for AUC0-∞ / t0.5λz / tmax / Cmax / MRT / k el / CL/F / Vd/F: ketamine 10 mg/kg i.p.; for Kp / Cmax / MRT / k el / CL/F / Vd/F: male, C57BL/6J, mouse, 10 mg/kg; for Kp: intraperitoneal; for Cmax / MRT / k el / CL/F / Vd/F: ip; for Cmax: read-out: Cmax; for MRT: read-out: MRT (converted); for k el: read-out: λz (converted); for Vd/F: read-out: Vz/F
# [2] = system: Zn levels in the Hp and FC; assay: Analysis of zinc (F-AAS) in the Hp and FC; type: in vivo, C57BL/6J mice; conditions: CRS + ZnD mice; three doses
# Procedure: (§1) All the compounds/drugs used in the study were obtained commercially, except for hyperforin (sodium salt), which was received as a gift from Dr. Wilmar Schwabe GmbH and Co (Karlsruhe, Germany). […] The control group received only 0.9% NaCl.
# The samples were mineralized before the experiments. Briefly, three independent test portions of 0.5 g each were weighed from each sample and transferred to Teflon vessels. Then, 2 mL of 30% H2O2 and 6 mL of 65% HNO3 (V) were added, and the mixture was subjected to wet mineralization in a closed system in a Magnum II mineralizer (ERTEC). Mineralization was carried out for 75 min with three cycles of magnetron operation, where the first 30 min was at 60% power, next 15 min was at 80% power, and the remaining 30 min was at 100% power. The mineralized solution thus obtained was heated on a hot plate at 120 °C for 60 min to remove the excess reagents. The samples were then quantitatively transferred to 10 mL flasks and used to determine the zinc content via the F–AAS method (adsorption and emission technique). An atomic absorption spectrometer (iCE 3500, Thermo Scientific, UK) was used to measure the Zn content; each sample was analyzed independently thrice, and the obtained results are presented as mean value ± standard error of mean (SEM).
# [3] = system: mice subjected to CRS and CRS + ZnD; assay: Tail suspension test (TST) in mice subjected to CRS or CRS + ZnD; type: in vivo, C57BL/6J mice; conditions: three doses, 72 h after the last treatment
# Procedure: as §1
# (§2) One week after acclimation, the mice were subjected to either a zinc-adequate feed (ZnA, 50 mg/kg) or zinc-deficient/low-Zn feed (ZnD, 3 mg/kg). Beginning from the second week, some ZnD mice were additionally subjected to 3 weeks of CRS. At the beginning of the 5th week, the mice were subjected to their appropriate treatment schedules or behavioral tests (see schemes in the figures).
# (§3) CRS was performed in accordance with the procedures of [Ding et al. (2016]) with modifications. Mice from the stress groups were restrained in well-ventilated tubes with caps and holes for breathing (in a separate room from the control groups) for 3 h/day over 3 weeks. After each restraint period, the mice were transferred to housing cages. The control mice were housed at 6 mice per cage in an enriched environment and were handled every third day.
# The TST was performed as described in a previous work ([Pochwat et al., 2018]). Briefly, each mouse was suspended individually by the tail using adhesive tape (2 cm from the tail tip) affixed to a solid flat surface, and immobility times were measured for 6 min. […]
# [4] = system: mice subjected to CRS and CRS + ZnD; assay: Sucrose preference test (SPT) in mice subjected to CRS or CRS + ZnD; type: in vivo, C57BL/6J mice; conditions: three doses (ketamine 10 mg/kg, Ro 10 mg/kg, Hyp 2.5 mg/kg + Lan 10 mg/kg), 24 h after the last treatment
# Procedure: as §1, §2, §3
# Seven days before the tests, the control and stressed mice were singly housed. The tests were carried out as follows. Two bottles (water and 1% sucrose solution) were placed in each cage 63 h before the test. Twenty-four hours later, the bottles were switched from right to left. Fifteen hours before the tests, the animals were deprived of food, water, and sucrose. The tests lasted 2 h, and sucrose preference was calculated as a percentage of the volume of sucrose intake over the total volume of fluid intake (water and sucrose solution). The SPT was performed during the light phase.
# [5] = system: treatment-resistant depression; parameters: method as in Serafini et al., 2014; conditions: ref Serafini et al., 2014; cited from earlier work
# [6] = frontal cortex, frontal cortex, CRS + ZnD mice
# [7] = frontal cortex, frontal cortex, CRS mice
# [8] = frontal cortex, frontal cortex, Control mice
# [9] = hippocampus, hippocampus, CRS + ZnD mice
# [10] = hippocampus, hippocampus, CRS mice
# [11] = hippocampus, hippocampus, Control mice
compound,measurement,setting,value
"CNC1(c2ccccc2Cl)CCCCC1=O (centres unmarked) [Ketamine, ketamine]",AUC0-∞,"[1]; frontal cortex, CRS + ZnD mice",65.97 µg·min/g
same,t0.5λz,"[1]; frontal cortex, CRS + ZnD mice",32.31 min
same,tmax,"[1]; frontal cortex, CRS + ZnD mice",10 min
same,AUC0-∞,"[1]; frontal cortex, CRS mice",106.58 µg·min/g
same,t0.5λz,"[1]; frontal cortex, CRS mice",34.92 min
same,tmax,"[1]; frontal cortex, CRS mice",10 min
same,AUC0-∞,"[1]; frontal cortex, Control mice",97.81 µg·min/g
same,t0.5λz,"[1]; frontal cortex, Control mice",30.49 min
same,AUC0-∞,"[1]; hippocampus, CRS + ZnD mice",58.49 µg·min/g
same,t0.5λz,"[1]; hippocampus, CRS + ZnD mice",42.69 min
same,tmax,"[1]; hippocampus, CRS + ZnD mice",10 min
same,AUC0-∞,"[1]; hippocampus, CRS mice",96.13 µg·min/g
same,t0.5λz,"[1]; hippocampus, CRS mice",39.68 min
same,tmax,"[1]; hippocampus, CRS mice",10 min
same,AUC0-∞,"[1]; hippocampus, Control mice",80.90 µg·min/g
same,t0.5λz,"[1]; hippocampus, Control mice",37.36 min
same,Kp,"[1]; brain structure (not specified) / serum, CRS + ZnD animals, read-out: tissue-to-serum AUC ratio for the parent drug",1.3
same,Kp,"[1]; brain structure (not specified) / serum, CRS + ZnD animals, read-out: tissue-to-serum Cmax ratio for the parent drug",1
same,Cmax,[1]; [6],2650 ng/g
same,MRT,[1]; [6],28.8 min
same,k el,[1]; [6],0.000367 s⁻¹
same,Cmax,[1]; [7],3030 ng/g
same,MRT,[1]; [7],28.4 min
same,k el,[1]; [7],0.000333 s⁻¹
same,Cmax,[1]; [8],3460 ng/g
same,MRT,[1]; [8],30.1 min
same,k el,[1]; [8],0.000383 s⁻¹
same,Kp,"[1]; hippocampus and frontal cortex / serum, control and stress (CRS) groups, Hp and FC, read-out: tissue-to-serum Cmax and AUC ratios for the parent drug",2.45 to 2.84
same,Cmax,[1]; [9],2310 ng/g
same,MRT,[1]; [9],31.3 min
same,k el,[1]; [9],0.000267 s⁻¹
same,Cmax,[1]; [10],3180 ng/g
same,MRT,[1]; [10],28.5 min
same,k el,[1]; [10],0.000283 s⁻¹
same,Cmax,[1]; [11],2990 ng/g
same,MRT,[1]; [11],30.4 min
same,k el,[1]; [11],0.000317 s⁻¹
same,CL/F,"[1]; serum, serum, CRS + ZnD mice",220 mL/min/kg
same,Cmax,"[1]; serum, serum, CRS + ZnD mice",2150 ng/mL
same,MRT,"[1]; serum, serum, CRS + ZnD mice",22 min
same,Vd/F,"[1]; serum, serum, CRS + ZnD mice",11.6 L/kg
same,k el,"[1]; serum, serum, CRS + ZnD mice",0.000317 s⁻¹
same,Cmax,"[1]; serum, serum, CRS mice",1120 ng/mL
same,MRT,"[1]; serum, serum, CRS mice",29.8 min
same,Vd/F,"[1]; serum, serum, CRS mice",14.6 L/kg
same,k el,"[1]; serum, serum, CRS mice",0.000317 s⁻¹
same,Cmax,"[1]; serum, serum, Control mice",1130 ng/mL
same,MRT,"[1]; serum, serum, Control mice",34.2 min
same,Vd/F,"[1]; serum, serum, Control mice",16 L/kg
same,k el,"[1]; serum, serum, Control mice",0.000317 s⁻¹
same,CL/F,"[1]; serum, CRS mice",270 mL/min/kg
same,CL/F,"[1]; serum, Control mice",300 mL/min/kg
same,t0.5λz,"[1]; serum, CRS + ZnD mice",35.93 min
same,tmax,"[1]; serum, CRS + ZnD mice",10 min
same,t0.5λz,"[1]; serum, CRS mice",37.06 min
same,tmax,"[1]; serum, CRS mice",10 min
same,t0.5λz,"[1]; serum, Control mice",36.70 min
same,Zn levels in the Hp and FC,[2],reduced the Zn levels
same,immobility time in the TST,[3],ineffective
same,sucrose preference in the SPT,[4]; CRS + ZnD mice,failed to restore sucrose preference
same,sucrose preference in the SPT,[4]; CRS mice,restored the sucrose preference
same,estimated efficacy,[5],50–70%

# Source: article PMC9448861 (Frontiers in Pharmacology, 2022)
